The results in this text go back to US20240327463A1, “ANTIBACTERIAL PRODUCTS” (priority 2017, published 2024).

The subject of one assay is MRSA 1003. It counts as cell-based, Staphylococcus aureus. The procedure:
(§1) Bacteria were grown on Mueller Hinton broth (oxoid). All incubations were at 37° C. Dilutions were carried out using Mueller Hinton. […] This process was repeated up to well 11. […] This was repeated three times. […] Results are tabulated in the Examples.

In the next assay the test system is MRSA ATCC 33591. As to the method: (§2) For MIC testing all peptides were dissolved in DMSO (according to the method of L. L. Ling, et al., Nature 2015, 517, 455-459). Bacteria were grown on Mueller Hinton broth (oxoid). All incubations were at 37° C. Dilutions were carried out using Mueller Hinton. 100 μl of autoclaved Mueller Hinton broth was added to wells 2-12 on a 96-well plate. 200 μl of the peptide was added to well one at a concentration of 512 μg/ml. 100 μl of peptide in well one was taken up and pipetted into well two. The mixture was then mixed via pipetting before 100 μl was taken up and pipetted into well three. This process was repeated up to well 11. […] This was repeated three times. The 96-well plates were then incubated for 24 hours. The MIC was determined to be the lowest concentration at which there was no growth visible.

In assay [1] the test system is Staphylococcus saprophyticus ATCC 49453. In kind it is cell-based. Conditions: ATCC 49453. The procedure: as §1
The subject of assay [2] is Staphylococcus saprophyticus ATCC BAA 750. In kind it is cell-based. To be noted: ATCC BAA 750. The procedure: as §1
The subject of assay [3] is Staphylococcus saprophyticus ATCC 15305. In kind it is cell-based. To be noted: ATCC 15305. The procedure: as §1
For assay [4], the system named is Bacillus Subtilis ATCC 6633. It counts as cell-based. As to the method:
as §1

The test system of another assay is SE12228. In kind it is cell-based. The procedure:
as §1

Assay [5] deals with Staphylococcus saprophyticus ATCC 49907. In kind it is cell-based. Conditions: ATCC 49907. As to the method: as §1
Assay [6] has as its system Bacillus Cereus ATCC 11788. It counts as cell-based. The procedure: as §1
Another assay deals with VRE 1004. In kind it is cell-based, Enterococcus faecalis. The procedure: as §1
The subject of another assay is VRE 1008. In kind it is cell-based, Enterococcus faecalis. The procedure: as §1
The test system of a further assay is VRE 1002. It counts as cell-based, Enterococcus faecalis. The procedure:
as §1

The next assay has as its system VRE 1001. In kind it is cell-based, Enterococcus faecalis. As to the method:
as §1

In assay [7] the test system is Staphylococcus aureus ATCC 29213. The assay can be described thus: microbe, parasite or virus in culture. As to the method: as §2
Another assay deals with VRE ATCC 700802. The assay can be described thus: microbe, parasite or virus in culture. As to the method:
as §2

For the next assay, the system named is MRSA DM21455 (eye). The experiment in a line: microbe, parasite or virus in culture. As to the method: as §2
Another assay deals with VRE ATCC 29212. The experiment in a line: microbe, parasite or virus in culture. The procedure:
as §2

For a further assay, the system named is MRSA DR 42412 (sputum). The experiment in a line: microbe, parasite or virus in culture. The procedure:
as §2

A further assay concerns MRSA ATCC 700699. The experiment in a line: microbe, parasite or virus in culture. The procedure:
as §2

The next assay deals with M. smegmatis ATCC 607. The assay can be described thus: microbe, parasite or virus in culture. The procedure: as §2
Where [8] appears, read: Staphylococcus aureus ATCC 29213, Table 4B.

SMILES strings stand for the structures. ≈ marks a conversion by molar mass, not a printed value. Like-named read-outs stand apart in the source and are kept apart here. Bridge positions count the residues as written; N and C are the ends. Square brackets hold non-standard residues; d marks the D form. Peptide text beside a SMILES is read from it. dNMeF = CN[C@H](Cc1ccccc1)C(=O)O A value given as a limit tells only on which side of the number the result lay.

Consider `CC[C@@H](C)[C@@H](NC(=O)[C@@H](CCC(N)=O)NC(=O)[C@H](CCCNC(=N)N)NC(=O)[C@@H](NC(=O)[C@@H](Cc1ccccc1)NC)[C@@H](C)CC)C(=O)N[C@H](C(=O)N[C@@H](CO)C(=O)N[C@H]1C(=O)N[C@@H](C)C(=O)N[C@@H](CC(C)C)C(=O)N[C@@H]([C@@H](C)CC)C(=O)O[C@H]1C)[C@@H](C)CC` [Compound 25, Arg3-Leu10-teixobactin] (H-[dNMeF]IR[dQ][dI]IS[dT]ALI; ester 8-C), for which the MIC (in the assay with MRSA 1003; in assay [1]; in assay [2]; in assay [3]; in assay [4]; in the assay on SE12228) was less than 0.0625 µg/mL each time. Further, the MIC was less than 0.0625 µg/mL in assay [5]; less than 0.0625 µg/mL in assay [6]; less than 0.0625 µg/mL against VRE 1004; 0.125 µg/mL (≈ 0.0984 µM) against VRE 1008; 0.5 µg/mL (≈ 0.394 µM) in the assay on VRE 1002; 0.25 µg/mL (≈ 0.197 µM) in the assay on VRE 1001. Moreover, the MIC in assay [7] (ATCC 29213) is 0.25 µg/mL (≈ 0.197 µM); in the assay on VRE ATCC 700802 (ATCC 700802) it was 0.5 µg/mL (≈ 0.394 µM); against MRSA DM21455 (eye) (DM21455 (eye)) it was 0.03125 µg/mL (≈ 0.0246 µM); in the assay with VRE ATCC 29212 (ATCC 29212), 0.5 µg/mL (≈ 0.394 µM); in the assay with MRSA DR 42412 (sputum) (DR 42412 (sputum)) it was less than 0.0625 µg/mL; against MRSA ATCC 700699 (ATCC 700699) it was 0.5 µg/mL (≈ 0.394 µM). Further, in the assay on MRSA ATCC 33591 (ATCC 33591), the “MIC (MRSA)” value was determined as 0.125 µg/mL (≈ 0.0984 µM).
In the case of `CC[C@H](C)[C@H](NC(=O)[C@@H](Cc1ccccc1)NC)C(=O)N[C@@H](CO)C(=O)N[C@H](CCC(N)=O)C(=O)N[C@@H](C(=O)N[C@H](C(=O)N[C@@H](CO)C(=O)N[C@H]1C(=O)N[C@@H](C)C(=O)N[C@@H](CCCNC(=N)N)C(=O)N[C@@H]([C@@H](C)CC)C(=O)O[C@H]1C)[C@@H](C)CC)[C@@H](C)CC` [Compound 6, Arg10-teixobactin, reference compound], the “MIC (MRSA*)” value in the assay with MRSA ATCC 33591 (MRSA ATCC 33591, Table 4A) came out at 2 µg/mL (≈ 1.61 µM). For the same molecule, the MBC in assay [7] (setting [8]) was determined as 1 µg/mL (≈ 0.804 µM); against MRSA DM21455 (eye) (MRSA 3: MRSA DM21455 (eye), Table 4B) it was 1 µg/mL (≈ 0.804 µM); in the assay on MRSA DR 42412 (sputum) (MRSA 2: MRSA DR 42412 (sputum), Table 4B) it was 0.5 µg/mL (≈ 0.402 µM); against MRSA ATCC 700699 (MRSA 1: MRSA ATCC 700699, Table 4B) it was 2 µg/mL (≈ 1.61 µM). Further, the MIC in [7] (setting [8]) was 0.25 µg/mL (≈ 0.201 µM); against M. smegmatis ATCC 607 (M. smegmatis ATCC 607, Table 4B) it was 1 to 2 µg/mL; in the assay with VRE ATCC 700802 (VRE 1: VRE ATCC 700802, Table 4B) it was 2 µg/mL (≈ 1.61 µM); against MRSA DM21455 (eye) (MRSA 3: MRSA DM21455 (eye), clinical isolate, Table 4B), 0.5 µg/mL (≈ 0.402 µM); in the assay with VRE ATCC 29212 (VRE 2: VRE ATCC 29212, Table 4B) it was 2 µg/mL (≈ 1.61 µM); against MRSA ATCC 700699 (MRSA 1: MRSA ATCC 700699, Mueller Hinton Broth, Table 4B), 1 µg/mL (≈ 0.804 µM).
On to `CC[C@@H](C)[C@@H](NC(=O)[C@@H](CCC(N)=O)NC(=O)[C@H](CO)NC(=O)[C@@H](NC(=O)[C@@H](Cc1ccccc1)NC)[C@@H](C)CC)C(=O)N[C@H](C(=O)N[C@@H](CO)C(=O)N[C@H]1C(=O)N[C@@H](C)C(=O)N[C@@H](C(C)C)C(=O)N[C@@H]([C@@H](C)CC)C(=O)O[C@H]1C)[C@@H](C)CC` [Compound 17], for which, in the assay on MRSA ATCC 33591 (ATCC 33591), the “MIC (MRSA*)” value is 0.5 µg/mL (≈ 0.421 µM). The MBC in [7] (ATCC 29213) stood at 1 µg/mL (≈ 0.842 µM); against MRSA DM21455 (eye) (DM21455 (eye)), 2 µg/mL (≈ 1.68 µM); with MRSA DR 42412 (sputum) (DR 42412 (sputum)), 4 µg/mL (≈ 3.37 µM); against MRSA ATCC 700699 (ATCC 700699), 4 µg/mL (≈ 3.37 µM). The MIC came out at 0.25 µg/mL (≈ 0.211 µM) in [7] (ATCC 29213); 1 µg/mL (≈ 0.842 µM) against M. smegmatis ATCC 607 (ATCC 607); 0.5 µg/mL (≈ 0.421 µM) with VRE ATCC 700802 (ATCC 700802); 0.25 µg/mL (≈ 0.211 µM) against MRSA DM21455 (eye) (DM21455 (eye)); 0.5 µg/mL (≈ 0.421 µM) with VRE ATCC 29212 (ATCC 29212); 0.5 µg/mL (≈ 0.421 µM) in the assay with MRSA DR 42412 (sputum) (DR 42412 (sputum)). Besides, the MIC against MRSA ATCC 700699 (ATCC 700699) was 1 µg/mL (≈ 0.842 µM).
On to `CC[C@@H](C)[C@@H](NC(=O)[C@@H](CCC(N)=O)NC(=O)[C@H](CCCNC(=N)N)NC(=O)[C@@H](NC(=O)[C@@H](Cc1ccccc1)NC)[C@@H](C)CC)C(=O)N[C@H](C(=O)N[C@@H](CO)C(=O)N[C@H]1C(=O)N[C@@H](CCCNC(=N)N)C(=O)N[C@@H](CC(C)C)C(=O)N[C@@H]([C@@H](C)CC)C(=O)O[C@H]1C)[C@@H](C)CC` [Compound 29, Arg3-Arg9-Leu10-teixobactin] (H-[dNMeF]IR[dQ][dI]IS[dT]RLI; ester 8-C), for which the MIC is 2 µg/mL (≈ 1.48 µM) in the assay with MRSA 1003; less than 0.0625 µg/mL in assay [1]; less than 0.0625 µg/mL in assay [2]; less than 0.0625 µg/mL in [3]; less than 0.0625 µg/mL in assay [4]; less than 0.0625 µg/mL in the assay on SE12228. The MIC in assay [5] was less than 0.0625 µg/mL; in [6], 1 µg/mL (≈ 0.738 µM); with VRE 1004 it was 0.5 µg/mL (≈ 0.369 µM); against VRE 1008 it was 0.5 µg/mL (≈ 0.369 µM); against VRE 1002 it was 1 µg/mL (≈ 0.738 µM); against VRE 1001, 0.5 µg/mL (≈ 0.369 µM). Moreover, the MIC is 1 µg/mL (≈ 0.738 µM) in [7] (ATCC 29213); 1 µg/mL (≈ 0.738 µM) in the assay on VRE ATCC 700802 (ATCC 700802); 1 µg/mL (≈ 0.738 µM) in the assay on MRSA DM21455 (eye) (DM21455 (eye)); 1 µg/mL (≈ 0.738 µM) in the assay on VRE ATCC 29212 (ATCC 29212); 0.25 µg/mL (≈ 0.184 µM) in the assay on MRSA DR 42412 (sputum) (DR 42412 (sputum)); 1 µg/mL (≈ 0.738 µM) against MRSA ATCC 700699 (ATCC 700699). The “MIC against MRSA ATCC 33591” value against MRSA ATCC 33591 (MRSA ATCC 33591) turned out to be 1 µg/mL (≈ 0.738 µM).
